Results reported in patent US10874743B2, “IRAK degraders and uses thereof” (Kymera Therapeutics, Inc., priority 2017, dated 2020).

Target: CRBN-DDB1 / GST-IRAK4 ternary complex (Homo sapiens, UniProt Q96SW2+Q9NWZ3)
Experiment: AlphaLISA assay to determine ternary complex formation
Format: binding
Protocol: The assay mixture contains 100 nM CRBN-DDB1, 100 nM GST-IRAK4, 20 μg/mL Nickle Chelate Donor Bead (Perkin Elmer Catalog # AS101D) and 20 μg/mL GSH Acceptor Bead (Perkin Elmer Catalog # AL109C) in a buffer containing 50 mM HEPES, pH 7.5, 100 mM NaCl, 0.1% BSA, 2 mM TCEP, 0.05% Tween-20. […] AlphaLISA signals (Excitation 680 nm and emission 615 nm) were recorded on a Perkin Elmer EnVision 2104 Multilabel reader. The raw data was converted to the relative amount of ternary complex formation by normalization to the signal generated by His-tagged GST protein only. The final data points were plotted and the curves were fit using non-linear regression using GraphPad Prism software.

CRBN-DDB1 / GST-IRAK4 ternary complex, sequence (Q9NWZ3 whole entry): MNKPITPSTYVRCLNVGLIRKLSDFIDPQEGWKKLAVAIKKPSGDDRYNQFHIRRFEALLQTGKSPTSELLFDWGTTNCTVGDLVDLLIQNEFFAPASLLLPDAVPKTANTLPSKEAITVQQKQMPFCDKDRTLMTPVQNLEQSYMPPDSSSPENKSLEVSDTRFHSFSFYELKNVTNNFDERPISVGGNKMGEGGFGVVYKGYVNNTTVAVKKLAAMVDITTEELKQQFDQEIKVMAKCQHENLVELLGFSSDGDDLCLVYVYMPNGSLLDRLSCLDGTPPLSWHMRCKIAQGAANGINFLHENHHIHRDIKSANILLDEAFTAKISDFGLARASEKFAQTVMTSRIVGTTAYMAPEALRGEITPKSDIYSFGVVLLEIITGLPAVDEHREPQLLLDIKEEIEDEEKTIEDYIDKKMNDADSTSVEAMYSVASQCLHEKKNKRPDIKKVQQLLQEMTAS
CRBN-DDB1 / GST-IRAK4 ternary complex, sequence (Q96SW2 whole entry): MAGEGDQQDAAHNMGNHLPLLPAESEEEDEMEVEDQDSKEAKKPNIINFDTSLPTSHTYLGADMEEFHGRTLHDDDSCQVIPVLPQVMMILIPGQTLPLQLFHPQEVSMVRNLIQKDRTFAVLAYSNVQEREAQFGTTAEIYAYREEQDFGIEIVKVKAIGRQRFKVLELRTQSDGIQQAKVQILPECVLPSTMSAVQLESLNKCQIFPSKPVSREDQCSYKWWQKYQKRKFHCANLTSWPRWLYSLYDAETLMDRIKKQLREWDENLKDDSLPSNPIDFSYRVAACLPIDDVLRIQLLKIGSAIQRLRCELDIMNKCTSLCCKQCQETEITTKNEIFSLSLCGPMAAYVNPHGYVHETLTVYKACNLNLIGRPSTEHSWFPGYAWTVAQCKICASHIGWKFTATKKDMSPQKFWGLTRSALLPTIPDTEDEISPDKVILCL
CRBN-DDB1 / GST-IRAK4 ternary complex, sequence (Q16531 whole entry partner): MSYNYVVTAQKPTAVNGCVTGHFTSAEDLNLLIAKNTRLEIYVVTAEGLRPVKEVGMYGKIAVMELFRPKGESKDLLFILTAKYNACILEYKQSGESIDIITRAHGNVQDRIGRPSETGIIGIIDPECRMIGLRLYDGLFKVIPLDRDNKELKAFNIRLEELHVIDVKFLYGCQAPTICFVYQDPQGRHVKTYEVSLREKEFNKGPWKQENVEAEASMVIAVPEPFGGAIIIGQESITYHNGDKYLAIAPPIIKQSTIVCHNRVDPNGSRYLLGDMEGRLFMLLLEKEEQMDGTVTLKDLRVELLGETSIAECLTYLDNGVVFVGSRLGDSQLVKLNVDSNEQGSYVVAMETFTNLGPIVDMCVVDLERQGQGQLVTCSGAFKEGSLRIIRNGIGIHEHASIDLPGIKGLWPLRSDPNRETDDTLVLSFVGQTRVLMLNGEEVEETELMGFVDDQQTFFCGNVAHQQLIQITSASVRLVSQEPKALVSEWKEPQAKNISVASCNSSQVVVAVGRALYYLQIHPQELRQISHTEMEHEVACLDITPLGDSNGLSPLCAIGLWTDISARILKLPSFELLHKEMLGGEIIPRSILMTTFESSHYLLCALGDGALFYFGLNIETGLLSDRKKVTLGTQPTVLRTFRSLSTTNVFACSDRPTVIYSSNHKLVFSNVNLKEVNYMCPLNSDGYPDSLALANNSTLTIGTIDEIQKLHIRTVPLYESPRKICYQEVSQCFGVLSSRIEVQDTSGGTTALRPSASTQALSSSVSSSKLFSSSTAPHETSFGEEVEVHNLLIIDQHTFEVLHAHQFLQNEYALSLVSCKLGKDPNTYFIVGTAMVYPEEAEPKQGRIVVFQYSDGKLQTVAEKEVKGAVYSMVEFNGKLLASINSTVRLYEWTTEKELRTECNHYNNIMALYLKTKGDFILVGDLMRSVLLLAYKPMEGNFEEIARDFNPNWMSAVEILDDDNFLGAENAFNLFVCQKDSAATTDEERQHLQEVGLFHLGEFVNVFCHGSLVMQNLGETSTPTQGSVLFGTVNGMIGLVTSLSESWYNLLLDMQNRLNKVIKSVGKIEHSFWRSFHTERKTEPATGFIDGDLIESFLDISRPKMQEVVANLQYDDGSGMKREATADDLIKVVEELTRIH

Average % Ternary Complex (N = 2) (compound concentration 1.00E−07 M): 31.29% | Average % Ternary Complex (N = 2) (compound concentration 1.25E−08 M): 5.89% | Average % Ternary Complex (N = 2) (compound concentration 1.28E−05 M): 1.58% | Average % Ternary Complex (N = 2) (compound concentration 1.60E−06 M): 12.53% | Average % Ternary Complex (N = 2) (compound concentration 2.00E−07 M): 28.96% | Average % Ternary Complex (N = 2) (compound concentration 2.50E−08 M): 12.66% | Average % Ternary Complex (N = 2) (compound concentration 3.20E−06 M): 6.74% | Average % Ternary Complex (N = 2) (compound concentration 4.00E−07 M): 25.83% | Average % Ternary Complex (N = 2) (compound concentration 5.00E−08 M): 23.14% | Average % Ternary Complex (N = 2) (compound concentration 6.25E−09 M): 2.71% | Average % Ternary Complex (N = 2) (compound concentration 6.40E−06 M): 3.36% | Average % Ternary Complex (N = 2) (compound concentration 8.00E−07 M): 17.79%
SMILES: NC(=O)c1nn(-c2ccc(C(=O)NCCOCCOCCNc3cccc4c3C(=O)N(C3CCC(=O)NC3=O)C4=O)cc2)cc1NC(=O)c1coc(-c2ccnc(NCC(F)(F)F)c2)n1 (stereo not drawn) [I-127, N-[3-carbamoyl-1-[4-[2-[2-[2-[[2-(2,6-dioxo-3-piperidyl)-1,3-dioxo-isoindolin-4-yl]amino]ethoxy]ethoxy]ethylcarbamoyl]phenyl]pyrazol-4-yl]-2-[2-(2,2,2-trifluoroethylamino)-4-pyridyl]oxazole-4-carboxamide]
